Measured values published in US9273040B2 (Merck Sharp & Dohme Corp., priority 2011, dated 2016).
pIC50: −log10 of the molar value.

Key:
Format in all cases: cell-based
[1] = target: T1, human Nav1.7 channels stably expressed in HEK 293 cells (Homo sapiens, UniProt Q15858); test: IonWorks Quattro automated patch-clamp, sodium current, inactivated state block; conditions: read-out: potency for the Nav 1.7 sodium ion channel (as measured by IonWorks)
T1 construct: expressed in transfected cells
Procedure: Compounds were tested on human Nav1.7 and Nav1.5 channels stably expressed in HEK 293 cells. […] Cells were sealed on a planar substrate using the Population Patch Plate (PPC) technology. Electrical access was obtained using both nystatin and amphotericin. A double-pulse protocol was used for the determination of IC50 values for inactivated state block. Nav1.7 and Nav1.5 expressing cells were voltage clamped at −100 mV and −110 mV, respectively. A depolarizing prepulse to −10 mV (Nav1.7) or −30 mV (Nav1.5) for 1000 ms followed by a 10 ms repolarization to −100 mV (Nav1.7) or −110 mV (Nav1.5) was given to generate fractional channel inactivation of ˜50%, followed by a 10 ms test pulse to −10 mV (Nav1.7) or −30 mV (Nav1.5) to measure peak current in control conditions and after compound addition. The following recording solutions were used (mM). External: 150 NaCl, 2 CaCl2, 5 KCl, 1 Mg Cl2, 10 HEPES, 12 Dextrose; internal: 120 CsF, 30 CsCl, 10 EGTA, 5 HEPES, 5 NaF, 2 MgCl2.
For all electrophysiology experiments, offline analysis was used to correct for current rundown and to determine percent inhibition as a function of drug concentration. IC50 values were determined by fitting to the Hill equation.

[2] = target: T1, human Nav1.7 channels stably expressed in HEK 293 cells; test: PatchXpress 7000 automated patch-clamp, sodium current; conditions: 22° C., read-out: potency for the Nav 1.7 sodium ion channel (as measured by PatchXpress)
How it was run: (§1)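 IC50 values came from Hill-equation fits of rundown-corrected inhibition. PatchXpress recordings at 22° C held cells 20 mV negative to V0.5 inact and applied 10 Hz trains of 30 ms steps to −20 mV (Nav1.7) or an 8000 ms prepulse 7 mV positive to V0.5 inact. […]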

[3] = target: T2, human Nav1.5 channels stably expressed in HEK 293 cells (Homo sapiens, UniProt Q14524); test: as above; conditions: selectivity over Nav1.5
T2 construct: expressed in transfected cells
T2 sequence (Q14524 whole entry): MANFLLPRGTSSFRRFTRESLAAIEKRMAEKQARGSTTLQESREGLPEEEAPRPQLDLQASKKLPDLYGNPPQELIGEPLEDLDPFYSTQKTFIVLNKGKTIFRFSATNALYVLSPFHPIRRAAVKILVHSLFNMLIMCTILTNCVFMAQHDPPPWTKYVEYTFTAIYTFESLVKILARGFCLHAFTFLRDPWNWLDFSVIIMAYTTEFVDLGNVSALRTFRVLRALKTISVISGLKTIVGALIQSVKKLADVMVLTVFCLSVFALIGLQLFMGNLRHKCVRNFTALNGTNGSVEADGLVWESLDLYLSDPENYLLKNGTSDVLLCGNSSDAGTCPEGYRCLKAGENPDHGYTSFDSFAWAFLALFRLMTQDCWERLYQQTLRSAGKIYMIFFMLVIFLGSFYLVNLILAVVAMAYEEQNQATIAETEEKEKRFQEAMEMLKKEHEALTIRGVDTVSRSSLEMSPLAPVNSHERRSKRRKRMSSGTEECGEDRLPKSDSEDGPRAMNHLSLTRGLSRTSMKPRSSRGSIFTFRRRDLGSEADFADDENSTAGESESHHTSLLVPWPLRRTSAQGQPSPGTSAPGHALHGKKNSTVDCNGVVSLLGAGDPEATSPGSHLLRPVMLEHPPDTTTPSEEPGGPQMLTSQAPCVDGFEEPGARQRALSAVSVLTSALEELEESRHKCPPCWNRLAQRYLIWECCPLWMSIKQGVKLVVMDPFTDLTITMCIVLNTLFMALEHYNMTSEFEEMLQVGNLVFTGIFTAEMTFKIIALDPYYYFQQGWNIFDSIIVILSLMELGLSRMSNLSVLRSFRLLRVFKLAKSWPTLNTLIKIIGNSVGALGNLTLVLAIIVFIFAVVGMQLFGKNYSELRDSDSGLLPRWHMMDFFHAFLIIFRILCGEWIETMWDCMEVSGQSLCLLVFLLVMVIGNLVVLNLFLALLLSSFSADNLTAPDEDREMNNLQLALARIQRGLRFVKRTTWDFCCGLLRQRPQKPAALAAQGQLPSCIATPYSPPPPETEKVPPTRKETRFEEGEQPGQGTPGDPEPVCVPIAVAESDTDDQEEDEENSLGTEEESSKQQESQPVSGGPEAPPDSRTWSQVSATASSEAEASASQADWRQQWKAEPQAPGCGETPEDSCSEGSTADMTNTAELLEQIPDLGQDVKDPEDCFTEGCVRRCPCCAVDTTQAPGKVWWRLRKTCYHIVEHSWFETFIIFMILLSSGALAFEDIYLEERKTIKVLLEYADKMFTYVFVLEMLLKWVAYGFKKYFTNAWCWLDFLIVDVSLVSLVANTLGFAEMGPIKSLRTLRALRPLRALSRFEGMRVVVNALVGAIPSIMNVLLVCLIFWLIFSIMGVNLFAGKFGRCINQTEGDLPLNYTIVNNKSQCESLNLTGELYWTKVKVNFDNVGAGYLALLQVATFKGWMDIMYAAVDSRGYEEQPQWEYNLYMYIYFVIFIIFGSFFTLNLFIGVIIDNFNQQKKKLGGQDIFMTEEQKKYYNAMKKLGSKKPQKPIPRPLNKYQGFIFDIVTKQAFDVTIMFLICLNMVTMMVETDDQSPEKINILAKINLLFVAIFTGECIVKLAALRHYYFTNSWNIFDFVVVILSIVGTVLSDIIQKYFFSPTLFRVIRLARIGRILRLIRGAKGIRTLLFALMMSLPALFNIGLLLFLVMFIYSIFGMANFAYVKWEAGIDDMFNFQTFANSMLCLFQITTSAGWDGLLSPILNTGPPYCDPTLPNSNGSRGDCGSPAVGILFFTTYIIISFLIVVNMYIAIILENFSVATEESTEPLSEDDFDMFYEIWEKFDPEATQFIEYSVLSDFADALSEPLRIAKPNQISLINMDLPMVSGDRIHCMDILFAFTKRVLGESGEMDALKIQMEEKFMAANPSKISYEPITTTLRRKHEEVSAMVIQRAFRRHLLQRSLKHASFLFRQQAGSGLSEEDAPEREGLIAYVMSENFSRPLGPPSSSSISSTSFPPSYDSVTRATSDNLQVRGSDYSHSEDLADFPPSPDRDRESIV
How it was run: as §1

T1 sequence (Q15858 whole entry): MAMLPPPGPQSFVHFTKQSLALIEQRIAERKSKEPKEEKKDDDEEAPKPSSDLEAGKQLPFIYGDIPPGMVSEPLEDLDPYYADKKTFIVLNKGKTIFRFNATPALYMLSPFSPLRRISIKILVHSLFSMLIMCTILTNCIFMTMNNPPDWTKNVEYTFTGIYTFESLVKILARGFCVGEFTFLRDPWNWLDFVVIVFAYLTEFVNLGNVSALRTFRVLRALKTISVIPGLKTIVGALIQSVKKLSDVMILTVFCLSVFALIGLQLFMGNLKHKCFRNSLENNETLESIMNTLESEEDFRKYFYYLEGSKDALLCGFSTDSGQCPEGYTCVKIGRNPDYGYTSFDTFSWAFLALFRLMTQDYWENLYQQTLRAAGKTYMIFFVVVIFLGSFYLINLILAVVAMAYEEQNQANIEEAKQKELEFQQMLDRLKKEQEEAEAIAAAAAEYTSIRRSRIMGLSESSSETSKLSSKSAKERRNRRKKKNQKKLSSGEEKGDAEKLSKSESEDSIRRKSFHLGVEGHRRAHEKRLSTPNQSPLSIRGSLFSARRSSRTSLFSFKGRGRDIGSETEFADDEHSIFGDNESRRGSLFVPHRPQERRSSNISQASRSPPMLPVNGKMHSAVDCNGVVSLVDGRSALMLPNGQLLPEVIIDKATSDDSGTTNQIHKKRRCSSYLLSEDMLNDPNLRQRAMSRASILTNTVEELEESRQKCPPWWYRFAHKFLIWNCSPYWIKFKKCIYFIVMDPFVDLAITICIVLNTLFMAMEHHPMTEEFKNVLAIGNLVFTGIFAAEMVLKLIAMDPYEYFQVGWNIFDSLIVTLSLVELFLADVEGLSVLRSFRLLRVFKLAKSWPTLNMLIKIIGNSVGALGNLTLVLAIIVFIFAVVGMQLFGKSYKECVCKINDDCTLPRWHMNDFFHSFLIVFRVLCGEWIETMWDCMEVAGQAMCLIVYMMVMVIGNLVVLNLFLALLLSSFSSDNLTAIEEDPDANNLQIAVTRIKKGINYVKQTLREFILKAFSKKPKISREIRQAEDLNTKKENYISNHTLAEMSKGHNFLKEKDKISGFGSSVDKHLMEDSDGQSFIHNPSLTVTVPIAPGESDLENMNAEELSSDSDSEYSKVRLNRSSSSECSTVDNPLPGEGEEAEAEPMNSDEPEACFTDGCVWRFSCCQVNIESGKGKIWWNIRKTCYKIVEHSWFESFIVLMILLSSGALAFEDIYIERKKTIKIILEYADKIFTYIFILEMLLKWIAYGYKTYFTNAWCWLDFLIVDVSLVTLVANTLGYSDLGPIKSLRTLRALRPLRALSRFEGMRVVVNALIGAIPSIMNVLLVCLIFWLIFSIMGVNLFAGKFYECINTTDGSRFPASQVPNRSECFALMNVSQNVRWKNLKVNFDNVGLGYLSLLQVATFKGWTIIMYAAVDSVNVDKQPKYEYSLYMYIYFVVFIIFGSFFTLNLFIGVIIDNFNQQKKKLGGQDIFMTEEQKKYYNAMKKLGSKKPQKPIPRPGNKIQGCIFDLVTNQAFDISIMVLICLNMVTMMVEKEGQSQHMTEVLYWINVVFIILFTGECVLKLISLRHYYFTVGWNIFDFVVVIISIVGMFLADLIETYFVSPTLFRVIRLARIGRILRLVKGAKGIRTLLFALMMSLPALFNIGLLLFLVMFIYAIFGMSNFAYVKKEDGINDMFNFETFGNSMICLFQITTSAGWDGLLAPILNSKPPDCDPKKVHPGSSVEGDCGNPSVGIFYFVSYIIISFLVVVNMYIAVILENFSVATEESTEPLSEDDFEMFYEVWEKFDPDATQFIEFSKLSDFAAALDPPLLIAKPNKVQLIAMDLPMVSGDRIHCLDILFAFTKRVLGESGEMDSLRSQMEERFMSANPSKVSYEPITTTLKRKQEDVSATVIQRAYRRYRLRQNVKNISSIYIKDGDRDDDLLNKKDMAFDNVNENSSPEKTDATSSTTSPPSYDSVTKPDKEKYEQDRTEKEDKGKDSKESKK

| Structure (SMILES) | pIC50 [1] | pIC50 [2] | ratio of Nav 1.5:Nav 1.7 potency, determined by PatchXpress measurement [3] |
| --- | --- | --- | --- |
| O=c1oc2cc(S(=O)(=O)Nc3ncns3)ccc2n1Cc1ccccc1-c1ccnc(CN2CCCCC2)c1 [Compound 3-10, 2-oxo-3-{2-[2-(piperidin-1-ylmethyl)pyridin-4-yl]benzyl}-N-1,2,4-thiadiazol-5-yl-2,3-dihydro-1,3-benzoxazole-6-sulfonamide] | 5.76 |  |  |
| O=c1oc2cc(S(=O)(=O)Nc3ncns3)ccc2n1Cc1cccc(C2=CCCNC2)c1 [Compound 3-15, 2-oxo-3-[3-(1,2,5,6-tetrahydropyridin-3-yl)benzyl]-N-1,2,4-thiadiazol-5-yl-2,3-dihydro-1,3-benzoxazole-6-sulfonamide] | 6.19 |  |  |
| O=c1oc2cc(S(=O)(=O)Nc3ncns3)ccc2n1Cc1cccc(C2=CC3CCC(C2)N3)c1 (stereo not drawn) [Compound 3-18, 3-[3-(8-azabicyclo[3.2.1]oct-2-en-3-yl)benzyl]-2-oxo-N-1,2,4-thiadiazol-5-yl-2,3-dihydro-1,3-benzoxazole-6-sulfonamide] | 5.88 |  |  |
| CCCN1CCc2cccc(Cn3c(=O)oc4cc(S(=O)(=O)Nc5ncns5)ccc43)c2C1 [Compound 6-3, 2-oxo-3-[(2-propyl-1,2,3,4-tetrahydroisoquinolin-8-yl)methyl]-N-1,2,4-thiadiazol-5-yl-2,3-dihydro-1,3-benzoxazole-6-sulfonamide] | 6.19 |  |  |
| O=c1oc2cc(S(=O)(=O)Nc3nccs3)c(F)cc2n1C1CCCc2c(F)cccc21 (stereo not drawn) [Compound 43-8, 5-fluoro-3-(5-fluoro-1,2,3,4-tetrahydronaphthalen-1-yl)-2-oxo-N-1,3-thiazol-2-yl-2,3-dihydro-1,3-benzoxazole-6-sulfonamide] |  | 7.15 | 75 |
| O=c1oc2cc(S(=O)(=O)Nc3nccs3)c(F)cc2n1C1CCCc2c(F)cc(F)cc21 (stereo not drawn) [Compound 43-9, 3-(5,7-difluoro-1,2,3,4-tetrahydronaphthalen-1-yl)-5-fluoro-2-oxo-N-1,3-thiazol-2-yl-2,3-dihydro-1,3-benzoxazole-6-sulfonamide] |  | 7.17 | 95 |
| O=c1oc2cc(S(=O)(=O)Nc3nccs3)c(F)cc2n1C1CC2(CCC2)Oc2ccc(Br)cc21 (stereo not drawn) [Compound 43-10, 3-(6-bromo-3,4-dihydrospiro[chromene-2,1′-cyclobutan]-4-yl)-5-fluoro-2-oxo-N-1,3-thiazol-2-yl-2,3-dihydro-1,3-benzoxazole-6-sulfonamide] |  | 7.24 | 29 |
| O=c1oc2cc(S(=O)(=O)Nc3nccs3)c(F)cc2n1C1CC2(CCC2)Oc2ccc(F)cc21 (stereo not drawn) [Compound 43-11, 5-fluoro-3-(6-fluoro-3,4-dihydrospiro[chromene-2,1′-cyclobutan]-4-yl)-2-oxo-N-1,3-thiazol-2-yl-2,3-dihydro-1,3-benzoxazole-6-sulfonamide] |  | 7.39 | 196 |
| O=c1oc2cc(S(=O)(=O)Nc3nccs3)c(F)cc2n1C1CCCc2ccc(F)cc21 (stereo not drawn) [Compound 43-12, 5-fluoro-3-(7-fluoro-1,2,3,4-tetrahydronaphthalen-1-yl)-2-oxo-N-1,3-thiazol-2-yl-2,3-dihydro-1,3-benzoxazole-6-sulfonamide] |  | 7.52 | 145 |
| Nc1cccc2c1CCCC2n1c(=O)oc2cc(S(=O)(=O)Nc3nccs3)c(F)cc21 (stereo not drawn) [Compound 43-13, 3-(5-amino-1,2,3,4-tetrahydronaphthalen-1-yl)-5-fluoro-2-oxo-N-1,3-thiazol-2-yl-2,3-dihydro-1,3-benzoxazole-6-sulfonamide] |  | 6.39 | 74 |
| Nc1ccc2c(c1)C(n1c(=O)oc3cc(S(=O)(=O)Nc4nccs4)c(F)cc31)CCC2 (stereo not drawn) [Compound 43-14, 3-(7-amino-1,2,3,4-tetrahydronaphthalen-1-yl)-5-fluoro-2-oxo-N-1,3-thiazol-2-yl-2,3-dihydro-1,3-benzoxazole-6-sulfonamide] |  | 6.85 | 724 |
| C[C@H](c1cccc2c1CNCC2)n1c(=O)oc2cc(S(=O)(=O)Nc3nccs3)c(F)cc21 [Compound 43-15, 5-fluoro-2-oxo-3-[(1R)-1-(1,2,3,4-tetrahydroisoquinolin-8-yl)ethyl]-N-1,3-thiazol-2-yl-2,3-dihydro-1,3-benzoxazole-6-sulfonamide] |  | 7.10 | 147 |
| Nc1ccc2c(c1)C(n1c(=O)oc3cc(S(=O)(=O)Nc4nccs4)c(F)cc31)CCC2 (stereo not drawn) [Compound 43-16, 3-(7-amino-1,2,3,4-tetrahydronaphthalen-1-yl)-5-fluoro-2-oxo-N-1,3-thiazol-2-yl-2,3-dihydro-1,3-benzoxazole-6-sulfonamide] |  | 6.68 | 329 |
| C[C@@H](c1cccc2cncn12)n1c(=O)oc2cc(S(=O)(=O)Nc3nccs3)c(F)cc21 [Compound 43-17, 5-fluoro-3-[(1S)-1-imidazo[1,5-a]pyridin-5-ylethyl]-2-oxo-N-1,3-thiazol-2-yl-2,3-dihydro-1,3-benzoxazole-6-sulfonamide] |  | 6.21 | 48 |
| C[C@H](c1cccc2cncn12)n1c(=O)oc2cc(S(=O)(=O)Nc3nccs3)c(F)cc21 [Compound 43-18, 5-fluoro-3-[(1R)-1-imidazo[1,5-a]pyridin-5-ylethyl]-2-oxo-N-1,3-thiazol-2-yl-2,3-dihydro-1,3-benzoxazole-6-sulfonamide] |  | 6.67 | 139 |
| C[C@H](c1ccccc1C#CCN)n1c(=O)oc2cc(S(=O)(=O)Nc3nccs3)c(F)cc21 [Compound 43-19, 3-{(1R)-1-[2-(3-aminoprop-1-yn-1-yl)phenyl]ethyl}-5-fluoro-2-oxo-N-1,3-thiazol-2-yl-2,3-dihydro-1,3-benzoxazole-6-sulfonamide] |  | 7.54 | 1267 |
| C[C@@H](c1ccccc1C1CNC1)n1c(=O)oc2cc(S(=O)(=O)Nc3nccs3)c(F)cc21 [Compound 43-20, 3-[(1S)-1-(2-azetidin-3-ylphenyl)ethyl]-5-fluoro-2-oxo-N-1,3-thiazol-2-yl-2,3-dihydro-1,3-benzoxazole-6-sulfonamide] |  | 6.21 | 48 |
| C[C@H](c1ccccc1C1CNC1)n1c(=O)oc2cc(S(=O)(=O)Nc3nccs3)c(F)cc21 [Compound 43-21, 3-[(1R)-1-(2-azetidin-3-ylphenyl)ethyl]-5-fluoro-2-oxo-N-1,3-thiazol-2-yl-2,3-dihydro-1,3-benzoxazole-6-sulfonamide] |  | 7.74 | 1164 |
| C[C@H](c1ccccc1C1(O)CNC1)n1c(=O)oc2cc(S(=O)(=O)Nc3nccs3)c(F)cc21 [Compound 43-22, 5-fluoro-3-{(1R)-1-[2-(3-hydroxyazetidin-3-yl)phenyl]ethyl}-2-oxo-N-1,3-thiazol-2-yl-2,3-dihydro-1,3-benzoxazole-6-sulfonamide] |  | 7.21 | 703 |
| C[C@H](c1ccccc1C1(F)CNC1)n1c(=O)oc2cc(S(=O)(=O)Nc3nccs3)c(F)cc21 [Compound 43-23, 5-fluoro-3-{(1R)-1-[2-(3-fluoroazetidin-3-yl)phenyl]ethyl}-2-oxo-N-1,3-thiazol-2-yl-2,3-dihydro-1,3-benzoxazole-6-sulfonamide] |  | 8.40 | 5541 |
| Cc1n[nH]cc1-c1cccc([C@@H](C)n2c(=O)oc3cc(S(=O)(=O)Nc4nccs4)c(F)cc32)c1 [Compound 43-24, 5-fluoro-3-{(1R)-1-[3-(3-methyl-1H-pyrazol-4-yl)phenyl]ethyl}-2-oxo-N-1,3-thiazol-2-yl-2,3-dihydro-l,3-benzoxazole-6-sulfonamide] |  | 6.99 | 33 |
| C[C@H](c1cccc(-c2ccn(C)n2)c1)n1c(=O)oc2cc(S(=O)(=O)Nc3nccs3)c(F)cc21 [Compound 43-25, 5-fluoro-3-{(1R)-1-[3-(1-methyl-1H-pyrazol-3-yl)phenyl]ethyl}-2-oxo-N-1,3-thiazol-2-yl-2,3-dihydro-1,3-benzoxazole-6-sulfonamide] |  | 6.51 | 86 |
| Cl.O=c1oc2cc(S(=O)(=O)Nc3nccs3)c(F)cc2n1Cc1cccc2c1CNCC2(F)F [Compound 44-5, 3-((4,4-Difluoro-1,2,3,4-tetrahydroisoquinolin-8-yl)methyl)-5-fluoro-2-oxo-N-(thiazol-2-yl)-2,3-dihydrobenzo[d]oxazole-6-sulfonamide hydrochloride] |  | 6.74 | 151 |
